Values joined by “and” are separate entries in the source; they are usually repeats but may differ in a detail not shown here. Equal entries are not always repeated. Inconclusive results and toxic doses are left out.
Tested on: BDF1 mice, L1210 6-MP/6-TG resistant leukemia ip, survival T/C
Test: NCI In Vivo Anticancer Drug Screen. Data for tumor model L1210 Leukemia resistant to 6-MP and 6-Thioguanine; NSC 755, NSC 752 (intraperitoneal) in B6D2F1 (BDF1) mice
Details: endpoint: mean survival time, higher = longer survival
Experimental: The antitumor activity of compounds was measured in mice bearing transplantable tumors. Survival or tumor size were measured and the results are expressed as the measurement made in the treated group (T) divided by the measurement made in the vehicle treated control group (C). The tumor model used in this assay is L1210 Leukemia resistant to 6-MP and 6-Thioguanine; NSC 755, NSC 752 (intraperitoneal) in B6D2F1 (BDF1) mice

[1] = dose: 93.0 mg/kg/injection, schedule: Q01DX Z (ip), vehicle: carboxymethylcellulose (CMC)
[2] = dose: 187.0 mg/kg/injection, schedule: Q01DX Z (ip), vehicle: carboxymethylcellulose (CMC)
[3] = dose: 4.0 mg/kg/injection, schedule: Q01DX Z (ip), vehicle: carboxymethylcellulose (CMC)
[4] = dose: 150.0 mg/kg/injection, schedule: Q01DX009 (ip), vehicle: other
[5] = dose: 1.87 mg/kg/injection, schedule: Q01DX Z (ip), vehicle: carboxymethylcellulose (CMC)
[6] = dose: 3.75 mg/kg/injection, schedule: Q01DX Z (ip), vehicle: carboxymethylcellulose (CMC)
[7] = dose: 7.5 mg/kg/injection, schedule: Q01DX Z (ip), vehicle: carboxymethylcellulose (CMC)
[8] = dose: 15.0 mg/kg/injection, schedule: Q01DX Z (ip), vehicle: carboxymethylcellulose (CMC)
[9] = dose: 62.0 mg/kg/injection, schedule: Q01DX Z (ip), vehicle: saline
[10] = dose: 125.0 mg/kg/injection, schedule: Q01DX Z (ip), vehicle: saline

SMILES: O=c1[nH]c(=O)n(C2CC(O)C(CO)O2)cc1Br (configuration not stated)
- T/C (dose: 20.0 mg/kg/injection, schedule: Q01DX Z (ip), vehicle: carboxymethylcellulose (CMC)): 112 % of control
- T/C (dose: 30.0 mg/kg/injection, schedule: Q01DX Z (ip), vehicle: carboxymethylcellulose (CMC)): 114 % of control
- T/C (dose: 40.0 mg/kg/injection, schedule: Q01DX Z (ip), vehicle: carboxymethylcellulose (CMC)): 102 % of control
- T/C (dose: 60.0 mg/kg/injection, schedule: Q01DX Z (ip), vehicle: carboxymethylcellulose (CMC)): 98 % of control
- T/C [1]: 117 % of control
- T/C [2]: 115 % of control
- T/C (dose: 375.0 mg/kg/injection, schedule: Q01DX Z (ip), vehicle: carboxymethylcellulose (CMC)): 112 % of control
- T/C (dose: 500.0 mg/kg/injection, schedule: Q01DX Z (ip), vehicle: carboxymethylcellulose (CMC)): 109 % of control

SMILES: O=NN(CCCl)C(=O)NCCCl
- T/C (dose: 2.0 mg/kg/injection, schedule: Q01DX015 (ip), vehicle: saline): 166 % of control and 181 % of control and 196 % of control
- T/C (dose: 2.6 mg/kg/injection, schedule: Q01DX015 (ip), vehicle: saline): 168 % of control
- T/C (dose: 6.0 mg/kg/injection, schedule: Q01DX015 (ip), vehicle: saline): 156 % of control
- T/C (dose: 8.0 mg/kg/injection, schedule: Q01DX015 (ip), vehicle: saline): 151 % of control and 157 % of control and 185 % of control
- T/C (dose: 9.0 mg/kg/injection, schedule: Q01DX015 (ip), vehicle: saline): 164 % of control
- T/C (dose: 13.5 mg/kg/injection, schedule: Q01DX015 (ip), vehicle: saline): 123 % of control

SMILES: NC(=O)N(CCCl)N=O
- T/C (dose: 0.47 mg/kg/injection, schedule: Q01DX Z (ip), vehicle: saline): 220 % of control
- T/C (dose: 0.93 mg/kg/injection, schedule: Q01DX Z (ip), vehicle: saline): 265 % of control
- T/C (dose: 1.25 mg/kg/injection, schedule: Q01DX Z (ip), vehicle: saline): 236 % of control
- T/C (dose: 1.87 mg/kg/injection, schedule: Q01DX Z (ip), vehicle: saline): 158 % of control
- T/C (dose: 5.0 mg/kg/injection, schedule: Q01DX Z (ip), vehicle: saline): 92 % of control

SMILES: CS(=O)(=O)OCCCl
- T/C (dose: 75.0 mg/kg/injection, schedule: Q01DX Z (ip), vehicle: saline): 115 % of control
- T/C (dose: 100.0 mg/kg/injection, schedule: Q01DX Z (ip), vehicle: saline): 108 % of control
- T/C (dose: 150.0 mg/kg/injection, schedule: Q01DX Z (ip), vehicle: saline): 116 % of control

SMILES: Oc1cc(CN(CCCl)CCCl)c(O)cc1CN(CCCl)CCCl
- T/C (dose: 0.5 mg/kg/injection, schedule: Q01DX Z (ip), vehicle: saline): 173 % of control
- T/C (dose: 2.0 mg/kg/injection, schedule: Q01DX Z (ip), vehicle: carboxymethylcellulose (CMC)): 153 % of control and 184 % of control
- T/C [3]: 102 % of control and 108 % of control

SMILES: O=C1C(NC(=O)C2CCCCC2)=C(N2CC2)C(=O)C(NC(=O)C2CCCCC2)=C1N1CC1
- T/C (dose: 31.0 mg/kg/injection, schedule: Q01DX Z (ip), vehicle: carboxymethylcellulose (CMC)): 99 % of control
- T/C (dose: 62.5 mg/kg/injection, schedule: Q01DX Z (ip), vehicle: carboxymethylcellulose (CMC)): 101 % of control
- T/C [1]: 93 % of control
- T/C (dose: 125.0 mg/kg/injection, schedule: Q01DX Z (ip), vehicle: carboxymethylcellulose (CMC)): 87 % of control
- T/C [2]: 92 % of control
- T/C (dose: 250.0 mg/kg/injection, schedule: Q01DX Z (ip), vehicle: carboxymethylcellulose (CMC)): 90 % of control

SMILES: Nc1nc(SCc2ccccc2)c2ncn(C3OC(CO)CC3O)c2n1 (configuration not stated)
- T/C (dose: 18.75 mg/kg/injection, schedule: Q01DX009 (ip), vehicle: other): 100 % of control
- T/C (dose: 37.5 mg/kg/injection, schedule: Q01DX009 (ip), vehicle: other): 97 % of control
- T/C (dose: 75.0 mg/kg/injection, schedule: Q01DX009 (ip), vehicle: other): 99 % of control
- T/C [4]: 91 % of control

SMILES: CN(C)/N=N/c1nc[nH]c1C(N)=O
- T/C (dose: 12.5 mg/kg/injection, schedule: Q01DX015 (ip), vehicle: carboxymethylcellulose (CMC)): 104 % of control
- T/C (dose: 25.0 mg/kg/injection, schedule: Q01DX015 (ip), vehicle: carboxymethylcellulose (CMC)): 107 % of control
- T/C (dose: 50.0 mg/kg/injection, schedule: Q01DX015 (ip), vehicle: carboxymethylcellulose (CMC)): 112 % of control
- T/C (dose: 200.0 mg/kg/injection, schedule: Q01DX015 (ip), vehicle: carboxymethylcellulose (CMC)): 115 % of control

SMILES: O=C(OCC1OC(n2cnc3c(=S)nc[nH]c32)C(OC(=O)c2ccc([N+](=O)[O-])cc2)C1OC(=O)c1ccc([N+](=O)[O-])cc1)c1ccc([N+](=O)[O-])cc1 (configuration not stated)
- T/C (dose: 6.25 mg/kg/injection, schedule: Q01DX015 (ip), vehicle: other): 94 % of control
- T/C (dose: 12.5 mg/kg/injection, schedule: Q01DX015 (ip), vehicle: other): 105 % of control
- T/C (dose: 25.0 mg/kg/injection, schedule: Q01DX015 (ip), vehicle: other): 88 % of control
- T/C (dose: 50.0 mg/kg/injection, schedule: Q01DX Z (ip), vehicle: other): 92 % of control
- T/C (dose: 400.0 mg/kg/injection, schedule: Q01DX Z (ip), vehicle: other): 86 % of control

SMILES: CCCCCCCSc1ncnc2c1ncn2CO
- T/C [4]: 96 % of control
- T/C (dose: 200.0 mg/kg/injection, schedule: Q01DX009 (ip), vehicle: other): 95 % of control
- T/C (dose: 300.0 mg/kg/injection, schedule: Q01DX009 (ip), vehicle: other): 100 % of control
- T/C (dose: 400.0 mg/kg/injection, schedule: Q01DX009 (ip), vehicle: other): 86 % of control

SMILES: O=C(Nc1ccc(C2=NCCCN2)cc1)c1ccc(NC(=O)c2ccc(C3=NCCCN3)cc2)cc1
- T/C (dose: 0.75 mg/kg/injection, schedule: Q01DX Z (ip), vehicle: carboxymethylcellulose (CMC)): 113 % of control
- T/C (dose: 1.5 mg/kg/injection, schedule: Q01DX Z (ip), vehicle: carboxymethylcellulose (CMC)): 116 % of control
- T/C (dose: 3.0 mg/kg/injection, schedule: Q01DX Z (ip), vehicle: carboxymethylcellulose (CMC)): 272 % of control
- T/C [3]: 235 % of control
- T/C (dose: 6.0 mg/kg/injection, schedule: Q01DX Z (ip), vehicle: carboxymethylcellulose (CMC)): 185 % of control
- T/C (dose: 16.0 mg/kg/injection, schedule: Q01DX Z (ip), vehicle: carboxymethylcellulose (CMC)): 106 % of control

SMILES: CN(C)c1ccc(/C=C\c2ccnc3ccccc23)cc1
- T/C [5]: 106 % of control
- T/C [6]: 97 % of control
- T/C [7]: 100 % of control
- T/C [8]: 91 % of control

SMILES: COc1cc2c(c3c1c(=O)c1ccccc1n3C)C=CC(C)(C)O2
- T/C (dose: 20.0 mg/kg/injection, schedule: Q01DX015 (ip), vehicle: carboxymethylcellulose (CMC)): 106 % of control
- T/C (dose: 40.0 mg/kg/injection, schedule: Q01DX015 (ip), vehicle: carboxymethylcellulose (CMC)): 116 % of control

SMILES: CCOC(=O)NP(=O)(N1CC1(C)C)N1CC1(C)C (configuration not stated)
- T/C (dose: 31.0 mg/kg/injection, schedule: Q01DX Z (ip), vehicle: saline): 113 % of control
- T/C [9]: 160 % of control
- T/C (dose: 62.5 mg/kg/injection, schedule: Q01DX Z (ip), vehicle: saline): 228 % of control
- T/C (dose: 93.0 mg/kg/injection, schedule: Q01DX Z (ip), vehicle: saline): 182 % of control
- T/C [10]: 160 % of control and 207 % of control
- T/C (dose: 187.0 mg/kg/injection, schedule: Q01DX Z (ip), vehicle: saline): 207 % of control

SMILES: O=CN(O)CC(=O)O
- T/C [9]: 100 % of control
- T/C [10]: 112 % of control
- T/C (dose: 250.0 mg/kg/injection, schedule: Q01DX Z (ip), vehicle: saline): 107 % of control
- T/C (dose: 500.0 mg/kg/injection, schedule: Q01DX Z (ip), vehicle: saline): 105 % of control

SMILES: S=P(N1CCOCC1)(N1CC1)N1CC1
- T/C [5]: 90 % of control
- T/C (dose: 2.5 mg/kg/injection, schedule: Q01DX Z (ip), vehicle: carboxymethylcellulose (CMC)): 93 % of control
- T/C [6]: 151 % of control
- T/C (dose: 5.0 mg/kg/injection, schedule: Q01DX Z (ip), vehicle: carboxymethylcellulose (CMC)): 117 % of control
- T/C [7]: 116 % of control
- T/C (dose: 12.5 mg/kg/injection, schedule: Q01DX Z (ip), vehicle: carboxymethylcellulose (CMC)): 109 % of control
- T/C [8]: 118 % of control
